Consider two compounds from PMC9060465 (Proceedings of the National Academy of Sciences of the …, 2022).

The target in assay [1] is T1, ECD of human GLP-1R (amino acids 24 to 145) (Homo sapiens, UniProt P43220).
T1 construct: GLP-1R (amino acids 24 to 145); 6His; made in house; host or cells: CHO cells
In words: GLP-1R extracellular domain binding by surface plasmon resonance. The following applies: SPR, 1:1 kinetic binding model; representative of n=3. From the text: DNA encoding each protein was transfected into CHO cells for expression. After expression, the proteins were purified by affinity chromatography (HIS-Trap Ni, Cytiva) followed by size exclusion chromatography using a HiLoad 26/600 Superdex 75pg column (Cytiva) with PBS buffer. […] Surface plasmon resonance measurements were made using a Biacore T200 (Cytiva) and analyzed using T200 Evaluation Software Version 3.1. Receptor ectodomain proteins were covalently immobilized (∼250 resonance units) on Sensor Chip CM4 BR100534 using the Amine coupling Immobilization Wizard in the Biacore T200 Control Software Version 2.0.2. Running buffer was HBS-EP (10 mM Hepes, 150 mM NaCl, 3 mM EDTA, 0.05% P20 [pH 7.6]; Teknova). Concentration series for each sample were made by serial dilution in running buffer. The samples were injected for 150 sec at a 30-µL/min flow rate, followed by 300 sec of dissociation. The surface was regenerated between samples with 10 mM glycine (pH 1.7).
Fig. S10. Receptor extracellular domain (ECD) binding affinity of peptides. Purified GIPR (left column) and GLP-1R (right column) extracellular domains were immobilized to biosensor […]
mM). […]
and efficacy (% Top) of ligands to induce Gα s -GTPγS binding and cAMP accumulation in HEK293 cells expressing GIPR were determined. The equilibrium affinity (KD) of ligands for the immobilized ectodomain of the GIPR were quantified by surface plasmon resonance. […]
(§1) Functional potency (EC50) and efficacy (% Top) of ligands to induce Gα s-GTPγS binding and cAMP accumulation in HEK293 cells expressing GLP-1R were determined. The equilibrium affinity (KD) of ligands for the immobilized ectodomain of the GLP-1R were quantified by surface plasmon resonance. […]
(§2) recruitment to the GLP-1R were determined using the NanoBRET approach. The potency (EC50) and efficacy (% Top) for ligands to induce GLP-1R Internalization were determined using diffusion-enhanced resonance energy transfer. […]
relative efficacy for NanoBRET assays. SPR data were analyzed using T200 evaluation software (Cytiva). […] ND, not determined. […]
On the technique in general: In SPR one partner is held on a chip, and binding of the other changes the refractive index at the surface.

Assay [2] deals with T2, human GIPR (Homo sapiens, UniProt P48546).
T2 construct: expressed in transfected cells; host or cells: HEK293
T2 sequence (P48546 22-466): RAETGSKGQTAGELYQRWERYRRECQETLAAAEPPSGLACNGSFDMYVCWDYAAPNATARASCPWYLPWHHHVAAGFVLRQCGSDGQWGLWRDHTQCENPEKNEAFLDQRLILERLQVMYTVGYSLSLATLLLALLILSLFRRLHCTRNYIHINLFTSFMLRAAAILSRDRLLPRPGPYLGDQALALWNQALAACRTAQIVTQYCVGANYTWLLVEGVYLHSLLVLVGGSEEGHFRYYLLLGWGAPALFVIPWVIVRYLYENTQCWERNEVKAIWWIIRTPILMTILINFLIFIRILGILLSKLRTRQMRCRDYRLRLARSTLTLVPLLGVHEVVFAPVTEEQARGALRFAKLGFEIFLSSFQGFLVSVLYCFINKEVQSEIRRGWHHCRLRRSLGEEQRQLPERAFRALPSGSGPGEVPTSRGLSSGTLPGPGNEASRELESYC
In words: [125I]GIP(1-42) competition binding, GIPR-expressing cell membranes. The following applies: membranes of HEK293 cells expressing human GIPR, albumin-free, geometric mean (SEM, n). From the text:
(§3) We note that the albumin-binding propensity of fatty acid-modified peptides can confound a pharmacological comparison of molecules, given the common use of albumin and serum as nonspecific blocking agents in biological assays. Therefore, to obviate this, entirely albumin-free assays supplemented with bovine casein or bacitracin were used to prevent nonspecific binding ([10]).
(§4) Functional potency (EC50)
(§5) and efficacy (% Top) of ligands to induce Gα s -GTPγS binding and cAMP accumulation in HEK293 cells expressing GIPR were determined. The equilibrium affinity (KD) of
(§6) ligands for the immobilized ectodomain of the GIPR were quantified by surface plasmon resonance. […]
(§7) SPR data were analyzed using T200 evaluation software (Cytiva). All data are presented as geometric means with SEM and n values
(§8) according to established practices. ND, not determined. NA, not applicable.

Assay [3] deals with T2, human GIPR. In words: GIPR Gαs [35S]GTPγS binding, GIPR-expressing membranes. The settings on record: Gαs-GTPγS binding, GIPR-expressing membranes; albumin-free; geometric mean (SEM, n); read-out: GIPR GTPγS Recruitment EC50. Type of assay: biochemical. Here is the method:
(§9) Fig. 4. […] (B) Ligand-induced GTPγS binding of Gαs was performed using the GIPR-expressing membranes. […] (C) Agonist-stimulated cAMP production was measured in human GIPR expressing HEK293 cells. […] (E) Ligand-induced GTPγS binding of Gαs was performed using the GLP-1R-expressing membranes. […] (F) Agonist-stimulated cAMP production was measured in human GLP-1R-expressing HEK293 cells. […] Data presented are representative of n ≥ 3 independent experiments. Summarized data are shown in SI Appendix, Table 2. log M; log Molar.
as §3, §4, §5, §6, §7, §8
A general note: Binding of GTPγS marks nucleotide exchange on a G protein.

For assay [4], the target named is T2, human GIPR. In words: GIPR low density cAMP accumulation in HEK293 cells. Type of assay: cell-based. On the procedure:
as §9, §3, §4, §5, §6, §7, §8
For orientation: Changes in cAMP serve as a functional read-out for many G protein-coupled receptors.

Assay [5] addresses T3, GLP-1R (Homo sapiens, UniProt P43220). Briefly: Ligand-induced GLP-1R internalization, SNAP-GLP-1R HEK293 cells. Type of assay: cell-based. The following applies: efficacy (% Top), percent internalization compared to maximal GLP-1; (SEM).
Target sequence in this assay (P43220 24-463): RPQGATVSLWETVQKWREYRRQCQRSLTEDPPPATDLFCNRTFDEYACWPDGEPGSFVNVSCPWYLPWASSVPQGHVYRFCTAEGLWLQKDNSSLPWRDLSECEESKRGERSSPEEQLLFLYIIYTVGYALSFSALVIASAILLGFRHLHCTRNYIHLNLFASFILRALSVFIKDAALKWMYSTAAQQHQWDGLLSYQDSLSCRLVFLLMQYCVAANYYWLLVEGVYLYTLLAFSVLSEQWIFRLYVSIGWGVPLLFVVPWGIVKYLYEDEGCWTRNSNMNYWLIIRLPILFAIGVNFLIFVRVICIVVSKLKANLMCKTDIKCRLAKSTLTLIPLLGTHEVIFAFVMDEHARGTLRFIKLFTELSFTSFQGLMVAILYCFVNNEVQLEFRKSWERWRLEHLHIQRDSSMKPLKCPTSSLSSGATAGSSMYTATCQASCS
The target of assay [6] is T3, GLP-1R. In words: β-arrestin 1 recruitment to the GLP-1R, NanoBRET. Type of assay: cell-based. More on the design: expressed in transfected cells. The following applies: efficacy (% Top), relative efficacy to GLP-1; (SEM). On the procedure: Functional potency (EC50) […]
and efficacy (% Top) of ligands to induce Gα s -GTPγS binding and cAMP accumulation in HEK293 cells expressing GIPR were determined. The equilibrium affinity (KD) of ligands for the immobilized ectodomain of the GIPR were quantified by surface plasmon resonance. Middle Panel: The affinity (Ki) of ligands for the GLP-1R was […]
as §1, §2
relative efficacy for NanoBRET assays. SPR data were analyzed using T200 evaluation software (Cytiva). All data are presented as geometric means with SEM and n values according to established practices. ND, not determined. NA, not applicable.
Target sequence in this assay (P43220 24-463): as above
Target sequence in this assay (P49407 whole entry partner): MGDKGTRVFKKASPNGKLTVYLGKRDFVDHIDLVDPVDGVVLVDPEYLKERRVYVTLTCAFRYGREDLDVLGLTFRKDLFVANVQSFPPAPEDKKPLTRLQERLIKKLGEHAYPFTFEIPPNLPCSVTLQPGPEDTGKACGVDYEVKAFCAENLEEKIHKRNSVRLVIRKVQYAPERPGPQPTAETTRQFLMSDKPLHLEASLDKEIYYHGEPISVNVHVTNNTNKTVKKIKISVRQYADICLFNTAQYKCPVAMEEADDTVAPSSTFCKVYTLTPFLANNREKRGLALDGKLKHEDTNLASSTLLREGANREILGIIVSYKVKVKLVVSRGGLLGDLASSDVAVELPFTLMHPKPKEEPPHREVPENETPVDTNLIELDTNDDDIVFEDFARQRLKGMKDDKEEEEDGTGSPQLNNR

In assay [7] the target is T3, GLP-1R. Briefly: GLP-1R Gαs [35S]GTPγS binding, GLP-1R-expressing membranes. The following applies: efficacy (% Top), normalized to GLP-1(7-36); (SEM). Type of assay: biochemical. Also noted: expressed in transfected cells; host or cells: HEK293. On the procedure:
as §9
(§10) We note that the albumin-binding propensity of fatty acid-modified peptides can confound a pharmacological comparison of molecules, given the common use of albumin and serum as nonspecific blocking agents in biological assays. Therefore, to obviate this, entirely albumin-free assays supplemented with bovine casein or bacitracin were used to prevent nonspecific binding ([10]). […]
(§11) Middle Panel: The affinity (Ki) of ligands for the GLP-1R was […]
as §1
(§12) SPR data were analyzed using T200 evaluation software (Cytiva). All data are presented as geometric means with SEM and n values according to established practices. ND, not determined. NA, not applicable.
Target sequence in this assay (P43220 24-463): as the sequence (P43220 24-463) above

Assay [8] addresses T3, GLP-1R. Briefly: GLP-1R low density cAMP accumulation in HEK293 cells. Also noted: expressed in transfected cells; host or cells: HEK293. The following applies: efficacy (% Top), normalized to GLP-1(7-36); (SEM). Type of assay: cell-based. Here is the method: as §9, §10, §11, §1, §12
Target sequence in this assay (P43220 24-463): as above
Assay [9] concerns the target T3, GLP-1R. In words: GRK2 recruitment to the GLP-1R, NanoBRET. Type of assay: cell-based. More on the design: expressed in transfected cells; host or cells: freestyle HEK cells. The settings on record: efficacy (% Top), relative to maximal GLP-1; (SEM). Here is the method:
After 48 h, transfected cells were incubated in phosphate-buffered saline (PBS) containing 0.1% (wt/vol) bovine casein and varying concentrations of the ligands. […]
The potency (EC50) and efficacy (% Top) for ligands to induce GLP-1R Internalization were
determined using diffusion-enhanced resonance energy transfer.
relative efficacy for NanoBRET assays. SPR data were analyzed using T200 evaluation software (Cytiva). All data are presented as geometric means with SEM and n values
as §8
Target sequence in this assay (P43220 24-463): as above
Target sequence in this assay (P25098 whole entry partner): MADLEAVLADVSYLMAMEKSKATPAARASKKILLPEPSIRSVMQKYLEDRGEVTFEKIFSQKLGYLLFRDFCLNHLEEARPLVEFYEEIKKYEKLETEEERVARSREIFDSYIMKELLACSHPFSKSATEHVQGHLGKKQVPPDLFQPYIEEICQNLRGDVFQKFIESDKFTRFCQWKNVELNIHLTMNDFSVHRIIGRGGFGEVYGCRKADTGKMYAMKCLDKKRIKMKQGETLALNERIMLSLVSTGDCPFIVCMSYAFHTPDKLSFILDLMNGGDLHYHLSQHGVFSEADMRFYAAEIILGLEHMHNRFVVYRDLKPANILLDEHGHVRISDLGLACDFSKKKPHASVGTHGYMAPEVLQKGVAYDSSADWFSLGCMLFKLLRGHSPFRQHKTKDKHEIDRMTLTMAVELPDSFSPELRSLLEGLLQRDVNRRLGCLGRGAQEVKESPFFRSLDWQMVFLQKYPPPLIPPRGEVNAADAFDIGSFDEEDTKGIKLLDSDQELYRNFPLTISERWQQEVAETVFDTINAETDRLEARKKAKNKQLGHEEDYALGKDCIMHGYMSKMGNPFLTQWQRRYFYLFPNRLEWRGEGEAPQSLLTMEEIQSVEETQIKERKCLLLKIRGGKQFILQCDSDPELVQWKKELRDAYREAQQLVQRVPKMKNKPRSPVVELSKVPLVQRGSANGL

T1 sequence (P43220 24-145): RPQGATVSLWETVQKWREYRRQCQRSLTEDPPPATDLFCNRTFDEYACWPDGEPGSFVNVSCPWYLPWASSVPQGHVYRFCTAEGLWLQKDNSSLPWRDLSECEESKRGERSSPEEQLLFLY

Regarding `CC[C@H](C)[C@H](NC(=O)[C@H](CO)NC(=O)[C@H](Cc1ccc(O)cc1)NC(=O)[C@H](CC(=O)O)NC(=O)[C@H](CO)NC(=O)[C@@H](NC(=O)[C@H](Cc1ccccc1)NC(=O)[C@@H](NC(=O)CNC(=O)[C@H](CCC(=O)O)NC(=O)[C@H](C)NC(=O)[C@@H](N)Cc1ccc(O)cc1)[C@@H](C)O)[C@@H](C)CC)C(=O)N[C@@H](C)C(=O)N[C@@H](CCSC)C(=O)N[C@@H](CC(=O)O)C(=O)N[C@@H](CCCCN)C(=O)N[C@H](C(=O)N[C@@H](Cc1c[nH]cn1)C(=O)N[C@@H](CCC(N)=O)C(=O)N[C@@H](CCC(N)=O)C(=O)N[C@@H](CC(=O)O)C(=O)N[C@@H](Cc1ccccc1)C(=O)N[C@H](C(=O)N[C@@H](CC(N)=O)C(=O)N[C@@H](Cc1c[nH]c2ccccc12)C(=O)N[C@@H](CC(C)C)C(=O)N[C@@H](CC(C)C)C(=O)N[C@@H](C)C(=O)N[C@@H](CCC(N)=O)C(=O)N[C@@H](CCCCN)C(=O)NCC(=O)N[C@@H](CCCCN)C(=O)N[C@@H](CCCCN)C(=O)N[C@@H](CC(N)=O)C(=O)N[C@@H](CC(=O)O)C(=O)N[C@@H](Cc1c[nH]c2ccccc12)C(=O)N[C@@H](CCCCN)C(=O)N[C@@H](Cc1c[nH]cn1)C(=O)N[C@@H](CC(N)=O)C(=O)N[C@H](C(=O)N[C@H](C(=O)N[C@@H](CCC(N)=O)C(N)=O)[C@@H](C)O)[C@@H](C)CC)C(C)C)[C@@H](C)CC` [GIP, reference compound], the “GLP-1R ECD kinetic KD” value in assay [1] is on record as “No kinetic fit possible”.

For orientation: Ki means a dissociation constant, usually derived from enzyme kinetics or from competition with a known ligand. A word on the EC50: it is the midpoint of the concentration-response curve. As to `CC[C@H](C)[C@H](NC(=O)[C@H](Cc1ccccc1)NC(=O)[C@H](CCC(=O)O)NC(=O)[C@H](CCCCN)NC(=O)[C@H](C)NC(=O)[C@H](C)NC(=O)[C@H](CCC(N)=O)NC(=O)CNC(=O)[C@H](CCC(=O)O)NC(=O)[C@H](CC(C)C)NC(=O)[C@H](Cc1ccc(O)cc1)NC(=O)[C@H](CO)NC(=O)[C@H](CO)NC(=O)[C@@H](NC(=O)[C@H](CC(=O)O)NC(=O)[C@H](CO)NC(=O)[C@@H](NC(=O)[C@H](Cc1ccccc1)NC(=O)[C@@H](NC(=O)CNC(=O)[C@H](CCC(=O)O)NC(=O)[C@H](C)NC(=O)[C@@H](N)Cc1ccc(O)cc1)[C@@H](C)O)[C@@H](C)O)C(C)C)C(=O)N[C@@H](C)C(=O)N[C@@H](Cc1c[nH]c2ccccc12)C(=O)N[C@@H](CC(C)C)C(=O)N[C@H](C(=O)N[C@@H](CCCCN)C(=O)NCC(=O)N[C@@H](CCCNC(=N)N)C(N)=O)C(C)C` [GLP-1 H7Y, reference compound], the Ki at human GIPR [2] is greater than 0.128 µM. Also, the EC50 was greater than 1 µM at human GIPR [3] and greater than 4 µM on human GIPR [4] (cAMP accumulation, HEK293 cells expressing GIPR, albumin-free, geometric mean (SEM, n)). In addition, the “GIPR Low Density cAMP Top” value at human GIPR [4] (efficacy (% Top), normalized to GIP(1-42), (SEM)) is on record as 39.4(9.5) %. For the same compound, the “GLP-1R Internalization Top” value on GLP-1R [5] is on record as 73.1 (3.4) %. Also, the “GLP-1R β-Arr1 Recruitment Top” value on GLP-1R [6] is listed as 35.3 (3.8) %. Further, the “GLP-1R GTPγS Recruitment Top” value at GLP-1R [7] is 80.7 (2.2) %. Besides, the “GLP-1R Low Density cAMP Top” value at GLP-1R [8] is 104 (4) %. Also, the “GLP-1R GRK2 Recruitment Top” value at GLP-1R [9] was 54.5 (2.1) %.
